Data as given in patent US20120095025A1, “SUBSTITUTED [1,2,4]TRIAZOLO[1,5-a]PYRIMIDINES AND THEIR USE AS POTASSIUM CHANNEL MODULATORS” (NEUROSEARCH A/S, priority 2009, published 2012).

The compounds below were run against T1, hSK1 channels (Homo sapiens, UniProt Q92952) (assay: Whole-cell patch-clamp recording of SK channel current in HEK293 cells expressing hSK1). Conditions: concentration required for decreasing the baseline current to 50% of the initial current.
T1 construct: expressed in transfected cells; host or cells: HEK293
Format: cell-based
Method: The ionic current through small-conductance Ca^2+-activated K^+ channels (SK channels, subtype 1) is recorded using the whole-cell configuration of the patch-clamp technique in a classic patch-clamp set-up using HEK293 tissue culture cells expressing hSK1 channels as described in e.g. WO 2006/100212.
For inhibitors a Kd value, defined as the concentration required for decreasing the baseline current to 50% of the initial current, was estimated.

SMILES | Kd [nM]
CCCON=CNc1nc2nccc(C(C)Oc3ccc(C(C)(C)C)cc3)n2n1 (centres unmarked) [Example 2, N-{7-[1-(4-tert-Butylphenoxy)ethyl]-[1,2,4]triazolo[1,5-a]pyrimidin-2-yl}-N′-propyloxy-formamidine] | < 100
CON=CNc1nc2nccc(C(C)Oc3ccc(C(C)(C)C)cc3C)n2n1 (centres unmarked) [Example 7, N-{7-[1-(4-tert-Butyl-2-methylphenoxy)ethyl]-[1,2,4]triazolo[1,5-a]pyrimidin-2-yl}-N′-methoxy-formamidine] | < 100
CON=CNc1nc2nccc(C(C)(C)Oc3ccc(C(C)(C)C)cc3)n2n1 [Example 10, N-{7-[1-(4-tert-Butylphenoxy)-1-methyl-ethyl]-[1,2,4]triazolo[1,5-a]pyrimidin-2-yl}-N′-methoxy-formamidine] | 100 to 1000
CON=CNc1nc2nccc(C(C)Oc3ccc(C4CCCC4)cc3)n2n1 (centres unmarked) [Example 5, N-{7-[1-(4-cyclopentyl-phenoxy)ethyl]-[1,2,4]triazolo[1,5-a]pyrimidin-2-yl}-N′-methoxy-formamidine] | > 3000
CCC(Oc1ccc(C(C)(C)C)cc1)c1ccnc2nc(NC=NOC)nn12 (centres unmarked) [Example 8, N-{7-[1-(4-tert-Butylphenoxy)propyl]-[1,2,4]triazolo[1,5-a]pyrimidin-2-yl}-N′-methoxy-formamidine] | < 100
CON=CNc1nc2nccc(COc3ccc(C(C)(C)C)cc3)n2n1 [Example 4, N-[7-(4-tert-Butylphenoxymethyl)-[1,2,4]triazolo[1,5-a]pyrimidin-2-yl]-N′-methoxy-formamidine] | > 3000
CC(Oc1ccc(C(C)(C)C)cc1)c1ccnc2nc(NC=NO)nn12 (centres unmarked) [Example 1, N-{7-[1-(4-tert-Butylphenoxy)ethyl]-[1,2,4]triazolo[1,5-a]pyrimidin-2-yl}-N′-hydroxy-formamidine] | 100 to 1000
CC(C)ON=CNc1nc2nccc(C(C)Oc3ccc(C(C)(C)C)cc3)n2n1 (centres unmarked) [Example 3, N-{7-[1-(4-tert-Butylphenoxy)ethyl]-[1,2,4]triazolo[1,5-a]pyrimidin-2-yl}-N′-isopropyloxy-formamidine] | > 3000
CON=CNc1nc2nccc(C(C)Oc3ccc(C(C)C)cc3)n2n1 (centres unmarked) [Example 6, N-{7-[1-(4-Isopropylphenoxy)ethyl]-[1,2,4]triazolo[1,5-a]pyrimidin-2-yl}-N′-methoxy-formamidine] | > 3000
CON=CNc1nc2nccc(C(C)Oc3ccc(C(C)(C)C)cc3)n2n1 (centres unmarked) [Example A, N-{7-[1-(4-tert-Butylphenoxy)ethyl]-[1,2,4]triazolo[1,5-a]pyrimidin-2-yl}-N′-methoxy-formamidine] | < 100
CON=CNc1nc2nccc(C(C)Oc3ccc(OC(C)(C)C)cc3)n2n1 (centres unmarked) [Example 9, N-{7-[1-(4-tert-Butoxy-phenoxy)ethyl]-[1,2,4]triazolo[1,5-a]pyrimidin-2-yl}-N′-methoxy-formamidine] | < 100
